Laboratory results as given in US5731160A, “Induction of antigen specific T-lymphocyte responses by stimulation with peptide loaded MHC class I molecules on antigen processing defective mammalian cell lines” (Rijksuniversiteit Leiden, priority 1992, dated 1998).
Read-outs that look alike come from different tables or passages of the source.

Key:
174CEM.T2 cells = test: Primary CTL response induction with p53 peptide loaded 174CEM.T2 cells and HLA-A2.1 positive PBL; assay type: cell-based, human; settings: PBL from healthy non-immunized HLA-A2.1 positive donor; peptide 80 μg/ml
Description: 174CEM.T2 (T2) cells in a concentration of 2×10^6 per ml were incubated for 13 hours at 37° C. in a T25 flask (Falcon, Becton & Dickinson, Plymouth, England, cat. no. 3013) in serum-free Iscove's medium (Biochrom KG, Seromed, Berlin, Gemany, cat. no. F0465) with glutamine (2 mM, ICN Biochemicals Inc., Costa Mes, Calif., U.S.A., cat. no. 15-801-55) and antibiotics as mentioned under 2 and p53 peptide at a final concentration of 80 μg/ml. Subsequently the T2 cells were spun down and treated at a density of 20×10^6 cells/ml with Mitomycin C (final concentration 50 μg/ml) in serum-free RPMI 1640 (manufacturer see 2) medium during one hour at 37° C. Thereafter the T2 cells were washed three times im RPMI 1640. Primary CTL responses were induced by filling all wells of a 96-well-U-bottom plate (Costar, Cambridge, Mass., U.S.A., cat. no. 3799) with 1×10^5 Mitomycin-C treated T2 cells in 50 μl of medium (serum-free RPMI 1640 containing glutamine and antibiotics as mentioned before), containing peptide at a concentration of 80 μg/ml. To these stimulator cells were added 4×10^5 HLA-A2.1 positive PBL in 50 μl of medium to each well. Stimulator and responder cells were cocultured for 7 days at 37° C. in an humidified incubator (90% humidity) and 5% CO2 in air.
On days 7 and 14 after primary response induction (see 5) the PBL (responder cells) were restimulated with peptide. […]

T2 cells = test: 51Cr release cytotoxicity assay of p53 peptide specific CTL clones on peptide loaded T2 target cells; assay type: cell-based, human; settings: peptide titration
Description: As target cells served T2 cells, labeled with 100 μCi ^51 Cr for 1 h at 37° C. […] The target cells were washed once more before adding them to the effector cells. Effector target ratio ranged from 20:1 to 2.5:1 in twofold dilution. […] Total duration of the incubation time was 4 h at 37° C.
The percentage ^51 Cr release was calculated by the formula: [formula] 7. Cloning of CTL by limiting dilution
The clones were tested for specificity on peptide loaded ^51 Cr labeled target cells ranging from E/T 20 to E/T 2.5 in twofold dilution steps.

target cells = settings: references 26 and 12; cited from earlier work
RMA-S cells = test: Induction of primary CTL responses in vitro with peptide-loaded RMA-S cells; assay type: cell-based, murine; settings: for Induction of primary CTL response by peptide-loaded RMA-S cells: NWP SC of unprimed B6 mice, 5-day culture, RMA-S as stimulator cells
Description: (§1) RMA-S or RMA cells were pre-cultured for 36 h at 22° C. or 37° C. in IMDM medium supplemented with 2% human pooled serum, penicillin (100 IU/ml), kanamycin (100 μg/ml), S and 2-ME (2×10^-5 M). […] Without further washing these (peptide-loaded) RMA-S cells were incubated 1:1(v/v) with C57BL/6 nylon wool-passed spleen cells (B6 NWP SC) in 24-well culture plates: 4×10^6 responder cells and 1×10^6 stimulator cells in 1 ml of culture medium per well in IMDM medium supplemented with 10% FCS, penicillin (100 IU/ml), kanamycin (100 μg/ml), and 2-ME(2×10^-5 M). For a primary CTL response NWP SC of non-immunized C57BL/6 mice were used.
(§2) After 5 days of culture the effectors were harvested on a lymphoprep (Nycomed Pharma, Oslo, Norway) gradient and tested for cytotoxic function on 2000 ^51 Cr-labeled target cells ranging from E/T 50 to E/T 0.8 in twofold dilution steps. The percentage specific ^51 Cr release was calculated by the formula: [formula]
Background (medium) release was always <25% of maximal (2% Triton X-100) release. The SE of triplicate culture was always <5% specific ^51 Cr release. Cytolytic activity calculated from individual dose-response curves is expressed as lytic units per 10^6 effector cells. Calculations were performed using linear regression. As target cells served: B6 mouse embryo cells, treated for 2 days with 50 U/ml IFN-γ at 37° C., LPS-induced (30 μg/ml LPS-B, Bacto Lab., Difco, Detroit, Mich., added to spleen cells for 5 days at 37° C.) B cell blasts from C57BL/6 mice (LPS) or EL4 cell (thymoma cell line of C57BL/6 origin, expressing K^b and Db). […] Virus-infected target cells were prepared by incubating 10^7 target cells with 300 HAU of nonvirulent Sendai virus in 1 ml of medium for 1 h or 12 h before labeling with ^51 Cr (28).
Induction of primary CTL responses in vitro with peptide-loaded RMA-S cells. NWP SC of B6 unprimed mice were stimulated 1:1 (v/v) once in vitro with RMA-S cells, pre-cultured for 36 h at 22° C., only or incubated with 50 μM A16 peptide or 50 μM S16 peptide. Peptide was present during the 5-day culture at 25 μM concentration. The effectors were harvested and tested on B6 mouse embryo cells (MEC) and B6 LPS-induced B cell blasts (LPS) as target cells, without or with 50 μM A16 and S16, respectively.
Peptide titration at induction level (A) and at target level (B) of primary CTL induced by peptide-loaded RMA-S cells.
Primary and secondary CTL responses induced by peptide-loaded RMA-S cells. For primary CTL responses NWP SC of B6 unprimed mice were used (A and B). For secondary CTL responses NWP SC of B6 mice were primed once i.p. with non-virulent Sendai virus (C and D).

RMA cells = test: Induction of primary CTL responses with peptide-loaded parental RMA cells; assay type: cell-based, murine; settings: any peptide concentration, pre-culture at 22° C. or 37° C.
Description: as §1, §2
Background (medium) release was always <25% of maximal (2% Triton X-100) release. The SE of triplicate culture was always <5% specific ^51 Cr release. Cytolytic activity calculated from individual dose-response curves is expressed as lytic units per 10^6 effector cells. Calculations were performed using linear regression. […]

[1] = test system: MHC class I molecules (H-2) on RMA and RMA-S cells; test: Direct peptide binding studies with 125I-labeled S9 on RMA and RMA-S cells; set-up: species or system murine
Description: RMA and RMA-S cells were cultured for 36 h at 26° C. in Iscove's medium supplemented with 2% human pooled serum. […] MHC class I molecules were immunoprecipitated using rabbit anti-H-2^b serum (29). Class I-associated peptide was quantitated by γ-spectrometry. For determination of H-2 levels 10^6 cells were iodinated using lactoperoxidase-catalyzed iodination. Subsequently cells were washed three times in PBS and lysed in TRITON X-100 lysis buffer. H-2 antigens were precipitated from equal amounts of trichloro-acetic acid (TCA)-precipitable counts (30) using rabbit anti-H-2^b serum (29). Immunoprecipitates were analysed by SDS-PAGE on 12% gels, and gels were exposed to Kodak (Rochester, N.Y.) X-AR5 (photographic film) films. Results were expressed in arbitrary units. One unit is defined as the level of cell surface H-2 per cell and peptide binding per cell, respectively on RMA cells.
Direct peptide binding studies on RMA and RMA-S cells. […] MHC class I molecules were immunoprecipitated using rabbit anti-H-2^b serum. Class I-associated peptide was quantitated by γ-spectrometry. Results are means of duplicate experiments and shown in dpm after subtraction of normal serum control precipitates (A). In (B) 26° C. pre-cultured RMA and RMA-S cells were surface iodinated and H-2 antigens were precipitated from equal amounts of TCA-precipitable counts using rabbit anti-H-2^b serum. The amount of cell surface H-2 on RMA-S cells is depicted relative to the amount on […]. […] The amount of class I-associated peptide on RMA-S cells is depicted relative to the amount on RMA-S cells, which is set at 1 arbitrary unit. Similar results were obtained in three independent experiments.

Sendai virus = settings: reference 12, cited from earlier work
HLA-A2.1 = biological target: T1, HLA-A2.1 (Homo sapiens, UniProt P04439); test: Peptide binding to HLA-A2.1 on (174.CEM) T2 cells; settings: 200 μg/ml peptide, BB7.2 immunofluorescence
T1 construct: detected by antibody BB7.2
T1 sequence (P04439 25-365): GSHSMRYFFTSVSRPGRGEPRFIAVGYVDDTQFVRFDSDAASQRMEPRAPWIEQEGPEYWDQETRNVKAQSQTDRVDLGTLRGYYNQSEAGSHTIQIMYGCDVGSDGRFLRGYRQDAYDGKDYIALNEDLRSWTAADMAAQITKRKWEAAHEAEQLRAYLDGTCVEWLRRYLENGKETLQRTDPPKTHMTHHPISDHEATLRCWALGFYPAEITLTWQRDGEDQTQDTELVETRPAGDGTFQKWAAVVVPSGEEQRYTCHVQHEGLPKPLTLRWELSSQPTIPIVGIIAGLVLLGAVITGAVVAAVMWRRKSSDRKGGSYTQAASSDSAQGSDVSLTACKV
T1 sequence (P61769 21-119 partner): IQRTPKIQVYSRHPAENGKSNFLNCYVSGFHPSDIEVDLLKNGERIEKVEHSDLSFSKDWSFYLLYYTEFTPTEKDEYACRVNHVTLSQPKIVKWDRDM
Description: Of this suspension 40 μl was put into a V bottomed 96 well plate (Greiner GmbH, Frickenhausen, Germany: 651101) together with 10 μl of the individual peptide dilutions (of 1 mg/ml). […] After a centrifuge round of 1200 rpm the pellet was resuspended in 50 μl of saturating amounts of HLA-A2.1 specific mouse monoclonal antibody BB7.2 for 30 minutes at 4° C.

[2] = 700 nM 125I-S9, 1 h, 26° C., FIG. 4B

Compound: CC(C)C[C@H](NC(=O)[C@@H](N)CC(C)C)C(=O)NCC(=O)N[C@@H](CCCNC(=N)N)C(=O)N[C@@H](CC(N)=O)C(=O)N[C@@H](CO)C(=O)N[C@@H](Cc1ccccc1)C(=O)N[C@@H](CCC(=O)O)C(=O)N[C@H](C(=O)O)C(C)C [A8]
- Generation of CTL response against autologous peptide in vitro (174CEM.T2 cells): possible to generate a CTL response against an autologous peptide
- peptide concentration sufficient for target cell sensitization (T2 cells): 20 ng/mL

Compound: CDSGPSNTPPEIHPW (CDSGPSNTPPEIHPVV) [A16]
- Sensitization of target cells for lysis by CTL (target cells): sensitize target cells for lysis by a CTL clone
- Induction of primary CTL response by peptide-loaded RMA-S cells (RMA-S cells): Primary CTL responses could be induced

Compound: FAPGNYPAL [S9, Sendai virus nucleoprotein peptide of 9 aa]
- Induction of primary CTL response by peptide-loaded RMA cells (RMA cells): non-stimulatory
- difference in peptide binding per cell between RMA and RMA-S cells [1, 2]: 2.5 fold
- peptide binding per H-2 molecule on RMA-S cells versus RMA cells [1, 2]: tenfold higher
- peptide concentration giving comparable binding, on RMA-S (26° C.) ([1]; comparable to RMA at 1 μM, FIG. 4A): 1 nM
- peptide concentration giving comparable binding, on RMA (26° C.) ([1]; comparable to RMA-S at 1 nM, FIG. 4A): 1 µM
- amount of peptide bound to RMA cells at 20 μM ([1]; compared with RMA-S cells at 1 μM): did not reach the amount of peptide bount to RMA-S cells observed at 1 μM
- minimally required concentration for primary response induction by peptide-loaded RMA-S cells (RMA-S cells; FIG. 3A and B): 1 µM
- Induction of primary CTL response by peptide-loaded RMA-S cells (RMA-S cells): primary response was obtained only by stimulation of T cells with peptide-loaded RMA-S cells

Compound: HGEFAPGNYPALWSYA [S16]
- Sensitization of target cells for lysis by CTL (target cells): sensitize target cells for lysis by specific H-2K^b -restricted CTL
- Induction of CTL memory in vivo by vaccination with peptide (Sendai virus): induces CTL memory in vivo
- Protection against lethal Sendai virus infection (Sendai virus): induce protective immunity against a lethal Sendai virus infection
- Protection against lethal Sendai virus infection (Sendai virus; listed as Sendai virus 16-mer peptide): protection against otherwise lethal Sendai virus doses
- Induction of primary CTL response by peptide-loaded RMA-S cells (RMA-S cells): Primary CTL responses could be induced

Compound: RMPEAAPPV [D6]
- Binding to HLA-A2.1 (HLA-A2.1): bind to the HLA-A2.1 molecule
